These results are taken from patent US9884806B2, “Cyclic vinylogous amides as bromodomain inhibitors” (ICAHN SCHOOL OF MEDICINE AT MOUNT SINAI, priority 2013, dated 2018).

The target in one data set is T1, BRD4_2 (Homo sapiens, UniProt O60885).
T1 construct: contains two tandem bromodomains (BrD1 and BrD2)
The data set is described as follows: Fluorescence anisotropy binding assay (competition with FITC-labeled MS417 probe), BRD4_2. Conditions: FITC-MS417 probe 80 nM, PBS pH 7.4, 1 hour, 25° C.

For data set [1], the target named is T2, first bromodomain (BrD1) of human BRD4 (Homo sapiens, UniProt O60885).
T2 construct: the first bromodomain (BrD1) of human BRD4; poly-His (cleaved yes); made in house
The data set is described as follows: Fluorescence anisotropy binding assay (competition with FITC-labeled MS417 probe). The settings on record: FITC-MS417 probe 80 nM, PBS pH 7.4, 1 hour, 25° C., read-out: BRD4_1 IC50. In outline: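 Competitive fluorescence anisotropy in PBS pH 7.4: 80 nM FITC-MS417 probe, 0.25 to 1 μM tag-cleaved BrD1, titrated unlabeled ligand, 1 hour at 25° C. IC50 values were fitted and converted to Ki using a corrected Cheng-Prusoff equation assuming one-site competition.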

What is called IC50 is the concentration needed to halve the response being measured. The melting point is the temperature of the solid-liquid transition. With `CC1=C(Nc2ccccn2)CCC1=O` [Example 01-28, 2-methyl-3-(pyridin-2-ylamino)cyclopent-2-enone], the melting point fell in the range of 163 to 165 °C. Also, at BRD4_2, the IC50 was > 10 µM. Further, the IC50 in data set [1] is > 10000 nM.

The compound `CC1=C(Nc2cccnc2)CCC1=O` [Example 01-29, 2-methyl-3-(pyridin-3-ylamino)cyclopent-2-enone] showed a melting point of 133 to 135 °C. Further, on BRD4_2, the IC50 is > 10 µM. Also, in data set [1], the IC50 is > 10000 nM.

As for `CC1=C(Nc2ccncc2)CCC1=O` [Example 01-30, 2-methyl-3-(pyridin-4-ylamino)cyclopent-2-enone], the melting point lay in the range of 203 to 205 °C. At BRD4_2, this compound gave a half-inhibitory concentration (IC50) of 1 to 10 µM. Further, in data set [1], the IC50 lay within 1000 to 10000 nM.

The compound `CC1=C(Nc2ccc(C(N)=O)cc2)CCCC1=O` [Example 01-35, 4((2-methyl-3-oxocyclohex-1-en-1-yl)amino)benzamide] came in with a melting point of 221 to 223 °C. The IC50 on BRD4_2 is 1 to 10 µM. In data set [1], the IC50 was 1000 to 10000 nM.

Take `CC1=C(Nc2cccc(CC(=O)O)c2)CCCC1=O` [Example 01-37, 2-(3((2-methyl-3-oxocyclohex-1-en-1-yl)amino)phenyl)acetic acid]: the melting point is 203 to 207 °C. The IC50 on BRD4_2 was > 10 µM. The IC50 in data set [1] was > 10000 nM.

As for `CC(=O)Nc1ccc(Cl)c(NC2=C(C)C(=O)CC2)c1` [Example 01-42, N-(4-chloro-3-((2-methyl-3-oxocyclopent-1-en-1-yl)amino)phenyl)-acetamide], the melting point was in the range of 265 to 268 °C. Besides, the IC50 on BRD4_2 lay in the range of 1 to 10 µM. For the same compound, the half-inhibitory concentration (IC50) in data set [1] is < 1000 nM.

`COC(=O)c1ccc(NC2=C(C)C(=O)CC2)c(I)c1` [Example 01-43, methyl 3-iodo-4-((2-methyl-3-oxocyclopent-1-en-1-yl)amino)benzoate]: the melting point is 178 to 180 °C. The compound further came in with a half-inhibitory concentration (IC50) at BRD4_2 of 1 to 10 µM. In addition, the IC50 in data set [1] fell in the range of 1000 to 10000 nM.

Consider `CC1=C(Nc2cccc(C(=O)O)c2Cl)CCC1=O` [Example 01-44, 2-chloro-3((2-methyl-3-oxocyclopent-1-en-1-yl)amino)benzoic acid], for which the melting point was in the range of 230 to 232 °C. Further, at BRD4_2, the concentration for half-maximal inhibition (IC50) was > 10 µM. In addition, the IC50 in data set [1] lay within 1000 to 10000 nM.

The compound `CC1=C(Nc2cc(C(=O)O)ccc2Br)CCCC1=O` [Example 01-48, 4-bromo-3((2-methyl-3-oxocyclohex-1-en-1-yl)amino)benzoic acid] had a melting point of 265 to 267 °C. In addition, at BRD4_2, the IC50 was > 10 µM. For the same compound, in data set [1], the IC50 was 1000 to 10000 nM.

As to `CC1=C(Nc2ncccc2Cl)CCCC1=O` [Example 01-49, 3-[(3-chloropyridin-2-yl)amino]-2-methylcyclohex-2-en-1-one], the melting point fell in the range of 113 to 115 °C. Also, the IC50 on BRD4_2 is > 10 µM. Moreover, the IC50 in data set [1] was 1000 to 10000 nM.

In turn, `CC1=C(Nc2nccnc2Cl)CCCC1=O` [Example 01-50, 3-[(3-chloropyrazin-2-yl)amino]-2-methylcyclohex-2-en-1-one] displayed a melting point of 116 to 118 °C. The IC50 on BRD4_2 is > 10 µM. In data set [1], the IC50 was > 10000 nM.

For `CC1=C(Nc2ccncc2Cl)CCCC1=O` [Example 01-51, 3-[(3-chloropyridin-4-yl)amino]-2-methylcyclohex-2-en-1-one], the melting point fell in the range of 135 to 138 °C. Further, at BRD4_2, the IC50 was > 10 µM. In addition, in data set [1], the IC50 was in the range of 1000 to 10000 nM.

For `CC1=C(Nc2cc(C(=O)O)c3ccccc3c2)CCCC1=O` [Example 01-52, 3-[(2-methyl-3-oxocyclohex-1-en-1-yl)amino]naphthalene-1-carboxylic acid], the melting point was 270 to 272 °C. Further, the IC50 on BRD4_2 was 1 to 10 µM. In addition, the IC50 in data set [1] lay in the range of 1000 to 10000 nM.

For `CC1=C(Nc2ccc3cc(C(=O)O)ccc3c2Cl)CCCC1=O` [Example 01-53, 5-chloro-6-[(2-methyl-3-oxocyclohex-1-en-1-yl)amino]naphthalene-2-carboxylic acid], the melting point was 272 to 275 °C (dec.). At BRD4_2, this compound returned a half-maximal inhibitory concentration (IC50) of 1 to 10 µM. The IC50 in data set [1] was < 1000 nM.

For `CC1=C(Nc2ccc3ncccc3c2)CCCC1=O` [Example 01-54, 2-methyl-3-[(quinolin-6-yl)amino]cyclohex-2-en-1-one], the melting point was 208 to 210 °C. Moreover, the IC50 at BRD4_2 was in the range of 1 to 10 µM. In data set [1], the IC50 is 1000 to 10000 nM.

`CC1=C(Nc2ccc3cnccc3c2)CCCC1=O` [Example 01-55, 3-[(isoquinolin-6-yl)amino]-2-methylcyclohex-2-en-1-one] returned a melting point of 163 to 165 °C. This compound also showed an IC50 at BRD4_2 of 1 to 10 µM. In data set [1], the concentration for half-maximal inhibition (IC50) fell in the range of 1000 to 10000 nM.

For `CC1=C(Nc2ccc3ccncc3c2)CCCC1=O` [Example 01-56, 3-[(isoquinolin-7-yl)amino]-2-methylcyclohex-2-en-1-one], the melting point is 145 to 147 °C. On BRD4_2, the IC50 was > 10 µM. In addition, in data set [1], the IC50 was 1000 to 10000 nM.

`CC1=C(Nc2ccc3cccnc3c2)CCCC1=O` [Example 01-57, 2-methyl-3-[(quinolin-7-yl)amino]cyclohex-2-en-1-one] returned a melting point of 133 to 135 °C. This compound also displayed an IC50 on BRD4_2 of 1 to 10 µM. In addition, the IC50 in data set [1] lay in the range of 1000 to 10000 nM.

In the case of `CC1=C(Nc2cc3ccccc3cn2)CCCC1=O` [Example 01-58, 3-[(isoquinolin-3-yl)amino]-2-methylcyclohex-2-en-1-one], the melting point was in the range of 205 to 208 °C. Besides, the IC50 at BRD4_2 fell in the range of 1 to 10 µM. Further, the IC50 in data set [1] lay within 1000 to 10000 nM.

In turn, `CC1=C(Nc2cnc3ccccc3c2)CCCC1=O` [Example 01-59, 2-methyl-3-[(quinolin-3-yl)amino]cyclohex-2-en-1-one] returned a melting point of 172 to 175 °C. On BRD4_2, the IC50 is > 10 µM. In addition, the IC50 in data set [1] was in the range of 1000 to 10000 nM.

For the compound `CC1=C(Nc2ccc3nccnc3c2)CCCC1=O` [Example 01-60, 2-methyl-3-[(quinoxalin-6-yl)amino]cyclohex-2-en-1-one], the melting point lay in the range of 110 to 112 °C. For the same compound, the concentration for half-maximal inhibition (IC50) on BRD4_2 is 1 to 10 µM. Moreover, in data set [1], the IC50 was 1000 to 10000 nM.

The compound `CC1=C(Nc2ccc3ncncc3c2)CCCC1=O` [Example 01-61, 2-methyl-3-[(quinazolin-6-yl)amino]cyclohex-2-en-1-one] gave a melting point of 215 to 216 °C. Besides, on BRD4_2, the IC50 is > 10 µM. The IC50 in data set [1] was > 10000 nM.

`CC1=C(Nc2ccc3cc[nH]c3c2)CCCC1=O` [Example 01-62, 3-[(1H-indol-6-yl)amino]-2-methylcyclohex-2-en-1-one] gave a melting point of 227 to 230 °C. Besides, at BRD4_2, the IC50 lay within 1 to 10 µM. In addition, the IC50 in data set [1] was < 1000 nM.

`CC1=C(Nc2ccc3[nH]c(=O)[nH]c3c2)CCCC1=O` [Example 01-63, 5-[(2-methyl-3-oxocyclohex-1-en-1-yl)amino]-2,3-dihydro-1H-1,3-benzodiazol-2-one] came in with a melting point of 233 to 235 °C. Besides, the IC50 on BRD4_2 was 1 to 10 µM. The IC50 in data set [1] is 1000 to 10000 nM.

In the case of `CC1=C(Nc2ccc3[nH]c(C(=O)O)cc3c2)CCCC1=O` [Example 01-64], the melting point fell in the range of 310 to 315 °C. This compound showed an IC50 at BRD4_2 of 1 to 10 µM. Further, in data set [1], the IC50 was < 1000 nM.

On to `CC1=C(Nc2cc(N)ccc2Cl)CCCC1=O` [Example 02-10, 3-((5-amino-2-chlorophenyl)amino)-2-methylcyclohex-2-enone], for which the melting point lay within 182 to 184 °C. This compound returned a concentration for half-maximal inhibition (IC50) at BRD4_2 of 1 to 10 µM. Also, the IC50 in data set [1] was in the range of 1000 to 10000 nM.

The compound `CC1=C(Nc2ccc(N)cc2Cl)CCCC1=O` [Example 02-12, 3-((4-amino-2-chlorophenyl)amino)-2-methylcyclohex-2-enone] displayed a melting point of 156 to 158 °C. On BRD4_2, this compound had an IC50 of 1 to 10 µM. The IC50 in data set [1] was in the range of 1000 to 10000 nM.

The compound `CC1=C(Nc2cccc(N)c2Cl)CCC1=O` [Example 02-13, 3-((3-amino-2-chlorophenyl)amino)-2-methylcyclopent-2-enone] gave a melting point of 223 to 225 °C. This compound also showed an IC50 on BRD4_2 of 1 to 10 µM. Moreover, the IC50 in data set [1] lay in the range of 1000 to 10000 nM.

`CC1=C(Nc2cc(N)ccc2Cl)CCC1=O` [Example 02-15, 3-((5-amino-2-chlorophenyl)amino)-2-methylcyclopent-2-en-1-one] returned a melting point of 166 to 168 °C. Also, the IC50 on BRD4_2 is 1 to 10 µM. For the same compound, the IC50 in data set [1] was in the range of 1000 to 10000 nM.

For the compound `COc1ccc(NC(=O)c2ccc(NC3=C(C)C(=O)CC3)c(I)c2)cc1` [Example 04-104, 3-iodo-N-(4-methoxyphenyl)-4-((2-methyl-3-oxocyclopent-1-en-1-yl)amino)benzamide], the melting point lay in the range of 222 to 224 °C. This compound returned an IC50 at BRD4_2 of 1 to 10 µM. Moreover, the IC50 in data set [1] is < 1000 nM.

`CC1=C(Nc2cc(C(=O)Nc3ccccc3C)c3ccccc3c2)CCCC1=O` [Example 04-106, 3-((2-methyl-3-oxocyclohex-1-en-1-yl)amino)-N-(o-tolyl)-1-naphthamide]: the melting point was 249 to 250 °C (dec.). At BRD4_2, this compound had an IC50 of 1 to 10 µM. Besides, the IC50 in data set [1] is < 1000 nM.

For `COc1ccc(C(=O)Nc2ccc(Cl)c(NC3=C(C)C(=O)CC3)c2)cc1` [Example 05-37, N-(4-chloro-3-((2-methyl-3-oxocyclopent-1-en-1-yl)amino)phenyl)-4-methoxybenzamide], the melting point lay in the range of 254 to 257 °C. Moreover, the half-maximal inhibitory concentration (IC50) at BRD4_2 is > 10 µM. Moreover, the IC50 in data set [1] is < 1000 nM.

On to `CC1=C(Nc2cc(NC(=O)c3ccccc3C)ccc2Cl)CCC1=O` [Example 05-38, N-(4-chloro-3-((2-methyl-3-oxocyclopent-1-en-1-yl)amino)phenyl)-2-methylbenzamide], for which the melting point lay in the range of 230 to 232 °C. For the same compound, the IC50 on BRD4_2 was < 1 µM. The IC50 in data set [1] was < 1000 nM.
